The source of these data is ChEMBL document CHEMBL4190312, “Tau protein aggregation in Alzheimer's disease: An attractive target for the development of novel therapeutic agents” (Eur J Med Chem, 2017).

The pKi is the negative decadic logarithm of the Ki, by convention in mol/L.

pKi: −log10 of the molar value.

The species named for experiment [1] is Homo sapiens. The experiment is described as follows: Selectivity index, ratio of Ki for human beta-hexosaminidase A to Ki for human O-GlcNAcase.
For a further experiment, the target named is T1, Protein O-GlcNAcase (Homo sapiens, UniProt O60502).
T1 sequence (O60502 whole entry): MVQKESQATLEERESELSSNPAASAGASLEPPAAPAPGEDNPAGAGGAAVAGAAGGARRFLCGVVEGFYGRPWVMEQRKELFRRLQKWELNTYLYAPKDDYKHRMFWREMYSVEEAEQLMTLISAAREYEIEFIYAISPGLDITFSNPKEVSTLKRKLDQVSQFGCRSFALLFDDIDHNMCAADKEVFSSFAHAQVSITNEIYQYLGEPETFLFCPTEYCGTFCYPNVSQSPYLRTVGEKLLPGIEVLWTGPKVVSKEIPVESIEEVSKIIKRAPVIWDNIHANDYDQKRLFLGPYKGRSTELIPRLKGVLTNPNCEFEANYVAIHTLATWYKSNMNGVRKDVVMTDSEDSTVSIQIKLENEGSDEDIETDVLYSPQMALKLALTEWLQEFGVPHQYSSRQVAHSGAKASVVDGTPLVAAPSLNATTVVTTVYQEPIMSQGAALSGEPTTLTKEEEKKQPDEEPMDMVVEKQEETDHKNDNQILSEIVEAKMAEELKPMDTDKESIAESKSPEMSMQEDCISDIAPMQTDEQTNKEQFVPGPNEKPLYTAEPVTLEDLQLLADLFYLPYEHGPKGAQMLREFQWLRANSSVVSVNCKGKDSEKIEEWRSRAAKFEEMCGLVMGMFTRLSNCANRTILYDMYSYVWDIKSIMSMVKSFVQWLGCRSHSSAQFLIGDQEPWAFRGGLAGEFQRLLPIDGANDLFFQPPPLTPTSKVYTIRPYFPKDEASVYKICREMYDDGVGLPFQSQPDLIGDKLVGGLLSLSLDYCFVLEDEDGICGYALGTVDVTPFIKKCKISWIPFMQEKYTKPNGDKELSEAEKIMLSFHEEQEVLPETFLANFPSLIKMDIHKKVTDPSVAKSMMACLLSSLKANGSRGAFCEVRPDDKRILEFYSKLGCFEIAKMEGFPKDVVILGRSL
The experiment is described as follows: Competitive inhibition of human O-GlcNAcase by Lineweaver-Burk analysis.

For experiment [2], the species on record is Homo sapiens. Nature of the experiment: Selectivity index, ratio of Ki for human beta-hexosaminidase B to Ki for human O-GlcNAcase.

Consider `C=C/C=C/C(=O)N[C@H]1c2nc(CCc3ccccc3)cn2[C@H](CO)[C@@H](O)[C@@H]1O`, for which the Ratio Ki in the experiment filed under Homo sapiens [1] and in the experiment filed under Homo sapiens [2] was 900000 throughout. The pKi on Protein O-GlcNAcase was 8.39.
